Data taken from patent US8314118B2, “Methods and compositions for treating dry eye” (priority 2009, dated 2012).

Tests used:
Assay type in all cases: in vivo, Sprague-Dawley rats
Normal rats with Dry Eye = assay: Schirmer test of tear production in Normal rats with dry eye or "wet" eye
Description: FIG. 7. Tear production of Normal rats with Dry Eye (upper panel) and “Wet” eye (lower panel). Animals were measured at baseline, and given 1 drop of topical 10^−6 M naltrexone hydrochloride (NTX). The horizontal black line represents mean baseline for comparisons. Data are expressed as mean (SEM) for 7 rats per group at each time point except 48 hr wherein n=3 rats.
Tear secretion was measured with Schirmer strips (Alcon Laboratories, Inc., Ft. Worth Tex.). A standard 17 mm long Schirmer strip was inserted into the lower cul-de-sac for 1 min. The strip wetting length was measured to the nearest millimeter. Five minutes prior to administration of the Schirmer strip, animals received topical Proparacaine Hydrochloride Ophthalmic Solution 0.5% (Akorn, Inc., Buffalo Grove, Ill.). Testing began 1 hour after the last drop of NTX or vehicle was administered, and continued every 24 hours thereafter.
Sprague-Dawley rats, males of 15-22 weeks of age, were tested for dry eye and therapeutic effects of opioid antagonists. […] All of these measures used a test called the Schirmer Test, as described in Example 1 (the same test used for humans).

ocular surface = assay: Slit-lamp observations of the ocular surface; conditions: during and after NTX administration
Description: To examine general overall morphology and pathology (e.g., corneal edema, scarring), observations with a hand-held slit lamp (Zeiss HSO 10 Hand Slit Lamp, Dublin, Calif.) were conducted.

DB rats [1] = assay: Corneal sensitivity by aesthesiometer in STZ-diabetic (DB) rats after topical treatment; conditions: for reduction in corneal sensitivity from Normal animals: DB NTX group
Description: (§1) Male Sprague-Dawley rats (˜245 g) were obtained from Charles River Laboratories (Wilmington, Mass.) and housed under standard laboratory conditions. All investigations conformed to the regulations of the ARVO, National Institutes of Health, and the guidelines of the Department of Comparative Medicine of The Pennsylvania State University.
(§2) Briefly, an intraperitoneal (i.p.) injection of 40 mg/kg streptozotocin (STZ, Sigma, St. Louis, Mo.) in ice-cold 0.5 mol/l citrate buffer (pH 4.5) was administered. […] Fifteen animals not receiving STZ, but injected with citrate buffer, were considered Normal.
Corneal sensitivity was determined by an aesthesiometer (Cachet and Bonnet-Aesthesiometer, Boca Raton, Fla.). The values (g/mm^2) were determined directly from the protocol (and conversion table) supplied by the manufacturer.
Measurements of sensitivity were conducted prior to the Schirmer test.
(§3) Naltrexone hydrochloride (Sigma-Aldrich, Indianapolis, Ind.) was prepared in Vigamox (moxifloxacin hydrochloride ophthalmic solution, Alcon, Inc, Ft. Worth, Tex.) at a 10^−5 M concentration. NTX was given as a single drop (0.05 ml) to the central cornea of the right eye, with the lower eyelid held away from the eye to avoid overflow.
(§4) Insulin or vehicle was applied topically at 0800 hours.
(§5) For body weights and glucose measurements, Student two-tailed t-tests were utilized. With Schirmer tests and aesthesiometer measurements, one-way analysis of variance with Newman-Keuls post tests was employed because measurements were conducted on a random sample of two-thirds of the rats in each group.

DB rats [2] = assay: Schirmer test of tear production in STZ-diabetic (DB) rats after topical treatment
Description: as §1, §2
Tear secretion was measured with Schirmer strips (Alcon Laboratories, Inc., Ft. Worth Tex.). […] The strip wetting length was measured to the nearest millimeter. Five minutes prior to administration of the Schirmer strip, animals received topical Proparacaine Hydrochloride Ophthalmic Solution 0.5% (Akorn, Inc., Buffalo Grove, Ill.).
as §3, §4, §5

[3] = Normal rats with dry eye, one drop of NTX 10^−6 M

With `O=C1CC[C@@]2(O)[C@H]3Cc4ccc(O)c5c4[C@@]2(CCN3CC2CC2)[C@H]1O5` [NTX, 17-(cyclopropylmethyl)-4,5α-epoxy-3,14-dihydroxymorphinan-6-one] the “change in moisture of animals with "wet" eye” value (Normal rats with Dry Eye; Normal rats with "wet" eye, one drop of NTX) was “no change in moisture”, the “persistence of "wet" eye” value (Normal rats with Dry Eye; [3]) was “maintained at 24 and 48 hr” and the “time of return to dry eye” value (Normal rats with Dry Eye; [3]) was at most 72 h. For the same molecule, the “time to reversal of dry eye” value (Normal rats with Dry Eye; Normal rats with dry eye, one drop of NTX 10^−6 M in VIGAMOX) was “within an hour”, the “duration of therapeutic effect” value (Normal rats with Dry Eye; one to two drops (10^−6 M)) was 48 h and the “time to reversal of dry eye conditions” value (Normal rats with Dry Eye; one to two drops (10^−6 M)) was “within an hour or so”. The “abnormalities of the ocular surface on slit-lamp examination” value (ocular surface) was “did not reveal any abnormalities”, the “reduction in corneal sensitivity from Normal animals” value (shortened to “reduction in corneal sensitivity”) (DB rats [1]; 120 hours after termination of 1 day of NTX q.i.d.) was 1.8 fold and the “reduction in corneal sensitivity” value (DB rats [1]; 192 hours after termination of 5 day NTX q.i.d.) was 1.9 fold. The “reduction in corneal sensitivity” value (DB rats [1]; 216 hours after termination of 5 day NTX q.i.d.) was 1.7 fold, the “time for which corneal sensitivity stayed comparable to Normal” value (DB rats [1]; DB rats, 1 drop of NTX, entire period of the experiment) was 96 h and the “time to restoration of corneal sensitivity” value (DB rats [1]; DB rats, 1 drop of topical NTX) was at most 1 h. For the same molecule, the “time for which corneal sensitivity scores were comparable to Normal rats” value (DB rats [1]; DB rats, NTX q.i.d. for 1 or 5 days, from 1 h after termination of drug exposure) was “at least 4 days”, the “reduction of tear production from Normal animals” value (DB rats [2]; DB NTX group, 96 hours after termination of 1 or 5 days of NTX q.i.d.) was 22-59% and the “time to restoration of tear secretion” value (DB rats [2]; DB rats, 1 drop of topical NTX 10^−5 M in Vigamox) was at most 1 h. For the same molecule, the “time for which Schirmer scores were comparable to Normal rats” value (DB rats [2]; DB rats, NTX q.i.d. for 1 or 5 days, from 1 hour after termination of drug exposure) was “at least 3 days”, the “time for which tear production was similar to Normal animals” value (DB rats [2]; DB rats, after 1 drop of NTX) was “at least 48 hours” and the “duration of therapeutic effect” value (DB rats [2]; four drops (10^−6 M) over a twelve-hour period) was “at least 72 hours”. For the same molecule, the “duration of effect on dry eye” value (DB rats [2]; only one daily topical application) was “more than 2 days”.

“INS: Bovine insulin (Sigma-Aldrich) prepared in Vigamox, utilized at a concentration of 1 U” was tested, and the “corneal sensitivity compared with Normal animals” value (DB rats [1]; DB rats, 1 drop of topical INS, 1, 24 and 48 h) was “did not differ from the Normal animals”, the “decrease of Schirmer score from Normal rats” value (DB rats [2]; DB INS group, at 1, 24 and 48 hour time points) was 35-58% and the “effect on tear production” value (DB rats [2]; DB rats, 1 drop of topical INS (1 U)) was “no effect”.
